Assay [1] deals with acute emesis. Particulars: administered together with dexamethasone and 5-HT3 antagonists; cited from earlier work.
In assay [2] the target is h-NK1 (Homo sapiens, UniProt P25103). As to the kind of experiment: Signal transduction (ST), intracellular Ca++ FLIPR, NK1 antagonistic activity. Type of assay: cell-based. The settings on record: read-out: pIC50 h-NK1 (converted). The method, then: (§1) This test evaluates in vitro functional NK1, NK2 and NK3 antagonistic activity. For the measurements of intracellular Ca^++ concentrations the cells were grown on 96-well (black wall/transparent bottom) plates from Costar for 2 days until they reached confluence. The cells were loaded with 2 μM Fluo3 in DMEM containing 0.1% BSA and 2.5 mM probenecid for 1 h at 37° C. They were washed 3× with a Krebs buffer (140 mM NaCl, 1 mM MgCl2×6H2O, 5 mM KCl, 10 mM glucose, 5 mM HEPES; 1.25 mM CaCl2; pH 7.4) containing 2.5 mM probenecid and 0.1% BSA (Ca^++-buffer). The cells were preincubated with a concentration range of antagonists for 20 min at RT and Ca^++-signals after addition of the agonists were measured in a Fluorescence Image Plate Reader (FLIPR from Molecular Devices, Crawley, England). The peak of the Ca^++-transient was considered as the relevant signal and the mean values of corresponding wells were analysed as described below.
(§2) The sigmoidal dose response curves were analysed by computerised curve-fitting, using the GraphPad Program. The EC50-value of a compound is the effective dose showing 50% of maximal effect. For mean curves the response to the agonist with the highest potency was normalised to 100%. For antagonist responses the IC50-value was calculated using non-linear regression. […]

The target of assay [3] is T1, h-NK2 (Homo sapiens, UniProt P21452).
T1 sequence (P21452 1-398): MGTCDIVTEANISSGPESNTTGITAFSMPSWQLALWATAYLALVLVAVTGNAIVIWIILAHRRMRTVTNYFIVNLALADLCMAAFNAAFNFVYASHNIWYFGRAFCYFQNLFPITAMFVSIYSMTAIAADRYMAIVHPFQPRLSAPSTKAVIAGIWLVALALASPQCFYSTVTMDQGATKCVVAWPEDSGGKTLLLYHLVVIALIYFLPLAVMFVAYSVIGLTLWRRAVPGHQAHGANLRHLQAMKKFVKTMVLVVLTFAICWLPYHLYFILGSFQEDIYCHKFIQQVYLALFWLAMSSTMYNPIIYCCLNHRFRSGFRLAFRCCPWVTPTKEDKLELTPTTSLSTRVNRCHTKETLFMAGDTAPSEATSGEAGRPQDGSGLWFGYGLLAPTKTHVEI
As to the kind of experiment: Signal transduction (ST), intracellular Ca++ FLIPR, NK2 antagonistic activity. Type of assay: cell-based. The settings on record: read-out: pIC50 h-NK2 (converted). As for the experimental part: as §1, §2

In assay [4] the target is T2, h-NK3 (Homo sapiens, UniProt P29371).
T2 sequence (P29371 1-465): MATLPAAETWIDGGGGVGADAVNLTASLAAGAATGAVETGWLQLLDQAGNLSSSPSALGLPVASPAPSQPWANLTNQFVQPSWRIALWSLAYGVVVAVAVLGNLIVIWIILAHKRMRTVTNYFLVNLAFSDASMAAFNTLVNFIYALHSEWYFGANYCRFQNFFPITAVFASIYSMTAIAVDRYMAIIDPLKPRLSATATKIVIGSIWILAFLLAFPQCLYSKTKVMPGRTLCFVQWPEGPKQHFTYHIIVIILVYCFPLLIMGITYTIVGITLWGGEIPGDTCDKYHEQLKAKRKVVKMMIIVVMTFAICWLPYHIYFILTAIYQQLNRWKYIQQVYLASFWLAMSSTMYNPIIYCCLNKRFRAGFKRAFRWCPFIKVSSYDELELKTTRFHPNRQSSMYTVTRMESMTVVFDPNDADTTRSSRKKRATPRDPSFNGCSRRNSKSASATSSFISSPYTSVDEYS
Put plainly: Signal transduction (ST), intracellular Ca++ FLIPR, NK3 antagonistic activity. Format: cell-based. The settings on record: read-out: pIC50 h-NK3 (converted). The method, then: as §1, §2

The subject of assay [5] is NK1 agonist-induced vocalisation response. Particulars: guinea-pigs; cited from earlier work.
In assay [6] the test system is dopamine release. The settings on record: frontal cortex vs striatum; cited from earlier work.
Assay [7] deals with cisplatin-induced emesis. Particulars: acute and delayed phase, animals; cited from earlier work.
The test system of assay [8] is schizophrenic patients. The settings on record: without affecting negative symptoms; cited from earlier work.
Assay [9] deals with chemotherapy- and radiation-induced sickness in cancer patients. The settings on record: cited from earlier work; for reduction of the development of delayed emesis: >24 h; for control of the acute emetic phase: first 24 h, either or not associated with dexamethasone.
In assay [10] the test system is major depression. The settings on record: data not conclusive due to high placebo response rate; cited from earlier work.

Sequence of h-NK1 (P25103 whole entry): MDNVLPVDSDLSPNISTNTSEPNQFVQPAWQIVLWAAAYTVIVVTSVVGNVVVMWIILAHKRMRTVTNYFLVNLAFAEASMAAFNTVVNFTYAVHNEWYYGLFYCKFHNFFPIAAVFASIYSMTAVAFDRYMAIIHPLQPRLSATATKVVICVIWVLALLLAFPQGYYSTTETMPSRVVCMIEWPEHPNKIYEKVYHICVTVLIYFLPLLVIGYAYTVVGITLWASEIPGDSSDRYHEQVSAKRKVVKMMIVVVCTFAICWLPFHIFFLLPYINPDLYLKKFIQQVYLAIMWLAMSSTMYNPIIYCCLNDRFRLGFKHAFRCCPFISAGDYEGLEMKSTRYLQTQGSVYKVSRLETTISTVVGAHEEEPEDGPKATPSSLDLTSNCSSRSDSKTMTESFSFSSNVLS

On to `COc1ccc(C(C)C)cc1CN[C@H]1C2CCN(CC2)[C@H]1C(c1ccccc1)c1ccccc1` [CJ-11,974, Ezlopitant], for which the “prevention of acute emesis” value in assay [1] is recorded as “additional effects”.
With `Cc1nnsc1C(=O)N1CC(N2CCN([C@H]3CCN(C(=O)c4cc(C(F)(F)F)cc(C(F)(F)F)c4)[C@H](Cc4ccccc4)C3)CC2)C1` [Compound 16], the IC50 in assay [2] was 7.41 nM; in assay [3] it was not below 10000 nM; in assay [4], 4900 nM.
With `O=C(c1cnccn1)N1CC(N2CCN([C@H]3CCN(C(=O)c4cc(C(F)(F)F)cc(C(F)(F)F)c4)[C@H](Cc4ccccc4)C3)CC2)C1` [Compound 20], the IC50 was 41.7 nM in assay [2], not below 10000 nM in [3] and 8130 nM in [4].
Turning to `O=C(c1ccoc1)N1CC(N2CCN([C@H]3CCN(C(=O)c4cc(C(F)(F)F)cc(C(F)(F)F)c4)[C@H](Cc4ccccc4)C3)CC2)C1` [Compound 9], in [2], the IC50 is 55 nM.
With `O=C([C@H]1CCOC1)N1CC(N2CCN([C@H]3CCN(C(=O)c4cc(C(F)(F)F)cc(C(F)(F)F)c4)[C@H](Cc4ccccc4)C3)CC2)C1` [Compound 12], the IC50 in assay [2] was 43.7 nM; in [3], not below 10000 nM; in [4], not below 10000 nM.
Turning to `CN(C)CCCN1c2ccccc2CCc2ccccc21` [imipramine], the “antagonism of NK1 agonist-induced vocalisation response” value (shortened to “antagonism”) in assay [5] is “antagonised”.
Regarding `CC(C)(C)OC(=O)NC(C)(C)C(=O)N1CC(N2CCN([C@H]3CCN(C(=O)c4cc(C(F)(F)F)cc(C(F)(F)F)c4)[C@H](Cc4ccccc4)C3)CC2)C1` [Compound 13], the IC50 in assay [2] was 33.9 nM; in assay [3] it was not below 10000 nM; in [4], not below 10000 nM.
`O=C(c1ccsc1)N1CC(N2CCN(C3CCN(C(=O)c4cc(C(F)(F)F)cc(C(F)(F)F)c4)C(Cc4ccccc4)C3)CC2)C1` (stereo not drawn) [Compound 8]: the IC50 in assay [2] was 204 nM.
Take `COc1ccc(-n2nnnc2C(F)(F)F)cc1CN[C@H]1CCCN[C@H]1c1ccccc1` [(S)-GR205,171]: the dopamine release result in [6] is “enhance dopamine release in the frontal cortex but not in the striatum”.
With `CC(C)(C)OC(=O)N1CCC[C@@H]1C(=O)N1CC(N2CCN([C@H]3CCN(C(=O)c4cc(C(F)(F)F)cc(C(F)(F)F)c4)[C@H](Cc4ccccc4)C3)CC2)C1` [Compound 22], the figures for the IC50 in assay [2], in assay [3] and in [4] were 37.2 nM, 5500 nM and 1820 nM, respectively.
Turning to `O=C(c1ccccc1Cl)N1CC(N2CCN([C@H]3CCN(C(=O)c4cc(C(F)(F)F)cc(C(F)(F)F)c4)[C@H](Cc4ccccc4)C3)CC2)C1` [Compound 18], the IC50 is 10.5 nM in [2], not below 10000 nM in [3] and 4370 nM in assay [4].
For `CC(C)(C)C(=O)N1CC(N2CCN([C@H]3CCN(C(=O)c4cc(C(F)(F)F)cc(C(F)(F)F)c4)[C@H](Cc4ccccc4)C3)CC2)C1` [Compound 17], in that order: 11 nM, not below 10000 nM and 5500 nM.
Take `O=C(c1ccccc1)N1CC(N2CCN(C3CCN(C(=O)c4cc(C(F)(F)F)cc(C(F)(F)F)c4)C(Cc4ccccc4)C3)CC2)C1` (stereo not drawn) [Compound 3]: the IC50 in [2] is 19.5 nM.
Consider `FC(F)(F)c1cc(CO[C@H]2CCCN[C@H]2c2ccccc2)cc(C(F)(F)F)c1` [L-733,060], for which the “antagonism” value in assay [5] is reported as “antagonised”.
`O=C(C1CCOC1)N1CC(N2CCN(C3CCN(C(=O)c4cc(C(F)(F)F)cc(C(F)(F)F)c4)C(Cc4ccccc4)C3)CC2)C1` (stereo not drawn) [Compound 11]: the IC50 is 10.5 nM in [2], not below 10000 nM in [3] and not below 10000 nM in assay [4].
For `CC(C(=O)N1CC(N2CCN([C@H]3CCN(C(=O)c4cc(C(F)(F)F)cc(C(F)(F)F)c4)[C@H](Cc4ccccc4)C3)CC2)C1)c1ccccc1` (stereo partly drawn) [Compound 14], the IC50 in assay [2] is 22.9 nM; in [3], 3980 nM; in [4], 631 nM.
Regarding `N#Cc1cccc(C(=O)N2CC(N3CCN([C@H]4CCN(C(=O)c5cc(C(F)(F)F)cc(C(F)(F)F)c5)[C@H](Cc5ccccc5)C4)CC3)C2)c1` [Compound 4], the IC50 in assay [2] is 45.7 nM.
In the case of `O=C(c1ccc(F)c(F)c1)N1CC(N2CCN([C@H]3CCN(C(=O)c4cc(C(F)(F)F)cc(C(F)(F)F)c4)[C@H](Cc4ccccc4)C3)CC2)C1` [Compound 5], the IC50 in assay [2] is 102 nM.
The same measure, in the same setting: with `O=C(c1cc(C(F)(F)F)cc(C(F)(F)F)c1)N1CCC(N2CCN(C3CNC3)CC2)CC1Cc1ccccc1` (stereo not drawn) [Compound 2] the figure was 123 nM; with `O=C(C1CC1)N1CC(N2CCN([C@H]3CCN(C(=O)c4cc(C(F)(F)F)cc(C(F)(F)F)c4)[C@H](Cc4ccccc4)C3)CC2)C1` [Compound 10], 63.1 nM.
For `O=C(c1cc(C(F)(F)F)cc(C(F)(F)F)c1)N1CCC(N2CCN(C3CN(c4cnccn4)C3)CC2)CC1Cc1ccccc1` (stereo not drawn) [Compound 19], the figures for the IC50 in assay [2], in assay [3] and in [4] were 45.7 nM, not below 10000 nM and not below 10000 nM, respectively.
`COc1ccccc1CN[C@H]1CCCN[C@H]1c1ccccc1` [CP-99,994]: in assay [7], the “inhibition of cisplatin-induced emesis” value is on record as “inhibit not only the acute but also the delayed phase”.
Take `O=C(c1cccnc1)N1CC(N2CCN([C@H]3CCN(C(=O)c4cc(C(F)(F)F)cc(C(F)(F)F)c4)[C@H](Cc4ccccc4)C3)CC2)C1` [Compound 6]: the IC50 in assay [2] was 49 nM.
In the case of `CC(=O)N(C)C1(c2ccccc2)CCN(CCC[C@]2(c3ccc(Cl)c(Cl)c3)CCCN(C(=O)c3ccccc3)C2)CC1` [SR142801], in assay [8], the antipsychotic activity result is given as “antipsychotic activity”.
`Cc1cc(C(=O)N2CC(N3CCN([C@H]4CCN(C(=O)c5cc(C(F)(F)F)cc(C(F)(F)F)c5)[C@H](Cc5ccccc5)C4)CC3)C2)n(C)n1` [Compound 7]: the IC50 in assay [2] was 72.4 nM; in assay [4], 3470 nM.
With `O=C(c1cc(C(F)(F)F)cc(C(F)(F)F)c1)N1CCC(N2CCN(C3CN(S(=O)(=O)c4cccs4)C3)CC2)CC1Cc1ccccc1` (stereo not drawn) [Compound 15], the IC50 in assay [2] was 32.4 nM; in assay [3], 5500 nM; in assay [4], 1230 nM.
On to `Cc1nccn1CC1CCc2c(c3ccccc3n2C)C1=O` (stereo not drawn) [ondansetron], for which, in [9], the “reduction of the development of delayed emesis” value was “poor efficacy” and the “control of the acute emetic phase” value is recorded as “effective”.
With `C[C@@H](O[C@H]1OCCN(Cc2n[nH]c(=O)[nH]2)[C@H]1c1ccc(F)cc1)c1cc(C(F)(F)F)cc(C(F)(F)F)c1` [aprepitant], the antidepressant effects entry in [10] is recorded as “antidepressant effects”. Also, the “prevention of acute emesis” value in assay [1] is reported as “additional effects”. Besides, the “inhibition of cisplatin-induced emesis” value in assay [7] is “inhibit not only the acute but also the delayed phase”.
For the compound `CN1C2CCCC1CC(NC(=O)c1nn(C)c3ccccc13)C2` (stereo not drawn) [granisetron], in assay [9], the “reduction of the development of delayed emesis” value is listed as “poor efficacy” and the “control of the acute emetic phase” value is on record as “effective”.
For the compound `CNCCC(Oc1ccc(C(F)(F)F)cc1)c1ccccc1` (stereo not drawn) [fluoxetine], the “antagonism” value in assay [5] is recorded as “antagonised”.

The values are drawn from patent publication US7435736B2, “Substituted 1-piperidin-4-yl-4-azetidin-3-yl-piperazine derivatives and their use as neurokinin antagonists” (Janssen Pharmaceutica, N.V., priority 2002, dated 2008).
